One data set relates to β-CATENIN. Nature of the data set: Immunofluorescence staining of xenograft tumor cells for β-CATENIN. In kind it is in vivo. The note with it: human colon cancer xenograft tumor (SW480) in nude mice; treated vs control. The source says: (§1) The effects of 2-acetylnaphtho[2,3-b]furan-4,9-dione, a compound of formula (I), to tumor cells were studied by analyzing the tumor cells treated with the compound or without the compound (control) with immunofluorescence staining using antibodies specific for human p-STAT3 and 13-CATENIN.

Data set [1] is described as follows: Phase Ib study in mPDAC patients, safety and adverse events. In kind it is in vivo, human. The note with it: in combination with gemcitabine and nab-paclitaxel. The source says: The effects of 2-acetylnaphtho[2,3-b]furan-4,9-dione, a compound of formula (I), in combination with gemcitabine and nab-paclitaxel in patients with metastatic pancreatic ductal adenocarcinoma (mPDAC) were studied in a Phase Ib extension, open label, multi-center study.
In that clinical study, the safety, tolerability and the recommended Phase II dose (RP2D), PK profile, and signs of anti-cancer activity of 2-acetylnaphtho[2,3-b]furan-4,9-dione in combination with nab-paclitaxel and gemcitabine were assessed in adult patients with metastatic pancreatic cancer. In each treatment cycle, 2-acetylnaphtho[2,3-b]furan-4,9-dione was administered at 240 mg BID for 4 weeks in combination with nab-paclitaxel 125 mg/m^2 and gemcitabine 1000 mg/m^2 administered weekly for 3 out of the 4 weeks. The treatment continued in 28-day cycles.
The patients received continuous oral administration of BBI-608 twice daily in 28 day cycles. A standard gemcitabine and nab-paclitaxel regimen was administered on days 1, 8 and 15 of every 28 day study cycle. Specifically, BBI-608 was administered at 240 mg BID in combination with gemcitabine 1000 mg/m^2 and nab-paclitaxel 125 mg/m^2 administered weekly for 3 out every 4 weeks until progression of disease, unacceptable toxicity, or another discontinuation criterion was met. Pharmacokinetics and pharmacodynamics were evaluated and objective tumor response was assessed every 8 weeks using Response Evaluation Criteria In Solid Tumors (RECIST 1.1).

The next data set has as its target T1, human p-STAT3 (Homo sapiens, UniProt P40763).
T1 construct: p-STAT3 and β-CATENIN protein levels in human colon cancer xenograft tumor (SW480) in nude mice; endogenous in cells; host or cells: SW480 human colon cancer xenograft tumor in nude mice
Nature of the data set: Immunofluorescence staining of xenograft tumor cells for p-STAT3. In kind it is in vivo. The following applies: human colon cancer xenograft tumor (SW480) in nude mice; treated vs control.
Description: as §1
In general terms: A xenograft is tissue or cells of one species grown in another, often human tumour cells in immunodeficient mice.

The subject of another data set is STAT3 pathway. The note with it: according to U.S. Pat. No. 8,877,803; read-out: STAT3 pathway activity, cellular IC50; cited from earlier work.
The next data set deals with STAT3. The data set can be described thus: Clinical trials, overall survival by STAT3/pSTAT3 level. The data set is classed as in vivo, human. The note with it: patients with higher expression levels of STAT3 (pSTAT3 before treatment), at least in CRC patients. The source says: Thus, the higher the level of pSTAT3 found in a cancer patient before treatment, at least in CRC patients, the higher the overall survival (OS) upon administering a treatment comprising at least one compound of formula (I).

Data set [2] has as its system Paca-2 human pancreatic cancer. Nature of the data set: Human PDAC xenograft tumor (Paca-2) in nude mice. The data set is classed as in vivo. The source says:
FIGS. 5A and 5B show an exemplary effect of a 2-acetylnaphtho[2,3-b]furan-4,9-dione and gemcitabine treatment on pancreatic ductal adenocarcinoma (PDAC) in an xenograft tumor mouse model according to certain embodiments of the present disclosure.
The effects of 2-acetylnaphtho[2,3-b]furan-4,9-dione, a compound of formula (I), on a human PDAC xenograft tumor (Paca-2) in nude mice were studied. Specifically, immunosuppressed mice with Paca-2 human pancreatic cancer were given 2-acetylnaphtho[2,3-b]furan-4,9-dione (20 mg/kg) or vehicle control IP daily or gemcitabine (120 mg/kg) or vehicle control IP every 3 days. Tumor size was evaluated periodically during treatment. Each point represents the mean+SEM of five tumors.

Data set [3] relates to human pancreatic adenocarcinoma (Panc-1). Nature of the data set: Human pancreatic adenocarcinoma (Panc-1) xenograft in immunosuppressed mice. In kind it is in vivo. The source says:
FIG. 6 show an exemplary effect of 2-acetylnaphtho[2,3-b]furan-4,9-dione, gemcitabine (Gemzar), and the combination of 2-acetylnaphtho[2,3-b]furan-4,9-dione and gemcitabine treatment on tumor volume in an xenograft tumor mouse model according to certain embodiments of the present disclosure.
The effects of 2-acetylnaphtho[2,3-b]furan-4,9-dione, a compound of formula (I), gemcitabine, and a combination of 2-acetylnaphtho[2,3-b]furan-4,9-dione and gemcitabine were studied. Specifically, immunosuppressed mice with established human pancreatic adenocarcinoma (Panc-1) were treated with vehicle control, 2-acetylnaphtho[2,3-b]furan-4,9-dione (100 mg/kg, PO, bid), gemcitabine (Gemzar, 80 mg/kg, IV, q3d), or the combination of 2-acetylnaphtho[2,3-b]furan-4,9-dione and gemcitabine. Tumor size was evaluated periodically during treatment. Each point represents the mean+SEM of five tumors.

T1 sequence (P40763 whole entry): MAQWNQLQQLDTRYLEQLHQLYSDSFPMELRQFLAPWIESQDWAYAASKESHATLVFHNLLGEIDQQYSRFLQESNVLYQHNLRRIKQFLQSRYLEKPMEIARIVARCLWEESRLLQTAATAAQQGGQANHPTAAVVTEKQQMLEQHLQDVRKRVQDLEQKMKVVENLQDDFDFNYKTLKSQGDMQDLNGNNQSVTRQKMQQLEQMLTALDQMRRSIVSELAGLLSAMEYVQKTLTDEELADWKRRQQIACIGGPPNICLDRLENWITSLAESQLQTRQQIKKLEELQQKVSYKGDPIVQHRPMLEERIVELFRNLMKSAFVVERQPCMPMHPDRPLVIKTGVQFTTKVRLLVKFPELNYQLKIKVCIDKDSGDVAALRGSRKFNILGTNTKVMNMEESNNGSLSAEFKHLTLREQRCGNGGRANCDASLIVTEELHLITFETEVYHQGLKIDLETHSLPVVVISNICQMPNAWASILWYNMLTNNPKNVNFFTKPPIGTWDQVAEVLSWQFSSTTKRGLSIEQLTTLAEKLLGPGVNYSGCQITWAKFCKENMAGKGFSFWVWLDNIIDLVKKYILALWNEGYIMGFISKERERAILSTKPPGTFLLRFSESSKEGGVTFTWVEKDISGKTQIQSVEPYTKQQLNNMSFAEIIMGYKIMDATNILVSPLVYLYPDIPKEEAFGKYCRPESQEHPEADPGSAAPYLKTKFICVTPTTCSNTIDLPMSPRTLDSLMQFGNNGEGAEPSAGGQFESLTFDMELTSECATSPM

Usually IC50 stands for the midpoint of a concentration-inhibition curve. As for `CC(=O)c1cc2c(o1)C(=O)c1ccccc1C2=O` [2-acetylnaphtho[2,3-b]furan-4,9-dione], the “tumor cells with positive staining for β-CATENIN” value in the data set with β-CATENIN is listed as “effectively inhibited”. Besides, in data set [1], the “grade 3 AEs related to napabucasin, number of patients” value is given as 9 patients; the “grade 3 dehydration related to napabucasin, number of patients” value was found to be 1 patient; the “grade 3 diarrhea related to napabucasin, number of patients” value was determined as 1 patient; the “grade 3 fatigue related to napabucasin, number of patients” value is given as 5 patients. In addition, in data set [1], the “grade 3 hypokalemia related to napabucasin, number of patients” value worked out at 1 patient; the “grade 3 nausea related to napabucasin, number of patients” value was found to be 1 patient; the “most common adverse events (AEs) related to napabucasin” value is “grade 1 diarrhea, abdominal pain, nausea, and fatigue”. Moreover, the “tumor cells with positive staining for human p-STAT3” value on human p-STAT3 is “effectively inhibited”. The IC50 with STAT3 pathway is around 250 nM. The “overall survival after treatment” value with STAT3 is given as “prolonged overall survival”. Besides, the “tumor growth (tumor size)” value in data set [2] (20 mg/kg IP daily) was “effective at inhibiting tumor growth”. The “tumor growth (tumor size)” value in data set [3] (100 mg/kg, PO, bid) is “certain effects in inhibiting tumor growth”.
As to `Nc1ccn([C@@H]2O[C@H](CO)[C@@H](O)C2(F)F)c(=O)n1` [gemcitabine, reference compound], the “tumor growth (tumor size)” value in data set [2] (120 mg/kg IP every 3 days) is listed as “only a marginal effect on tumor growth”; in data set [3] (Gemzar, 80 mg/kg, IV, q3d), “certain effects in inhibiting tumor growth”.

Values taken from patent publication US20190076392A1, “METHODS FOR TREATING CANCER” (Boston Biomedical, Inc., priority 2016, published 2019).
